Reference: DBAASP
In brackets after ≈: the same amount, converted by molar mass. Several values for one entry are separate records, joined by “and”; a condition that tells them apart may be missing. Identical values can stand only once. Values belong to the compound of their own block, whether it stands above or below them.

Experiments:
Assay in all cases: ≥ marks a high value that may be exact or a test limit, other limits are often not marked, values filed in µg/mL are converted to µM
[1] = test system: Aeromonas salmonicida 99-1
Escherichia coli DC2 = test system: Escherichia coli DC2
Candida albicans C627 = test system: Candida albicans C627
[2] = test system: Pseudomonas aeruginosa Z61
[3] = test system: Aeromonas salmonicida 97-4
[4] = test system: Pseudomonas aeruginosa K799
[5] = test system: Salmonella enterica subsp. enterica serovar Typhimurium ATCC 14028s
[6] = test system: Staphylococcus aureus C623
Escherichia coli UB1005 = test system: Escherichia coli UB1005
[7] = test system: Salmonella enterica serovar typhimurium MS7953s
[8] = test system: Escherichia coli CGSC 4908
[9] = test system: Staphylococcus epidermidis C621
[10] = test system: Candida albicans ATCC 10231
[11] = test system: Corynebacterium glutamicum ATCC 13032
[12] = test system: Pseudomonas aeruginosa ATCC 27853
Aureobasidium pullulans = test system: Aureobasidium pullulans
Bacillus megaterium = test system: Bacillus megaterium
[13] = test system: Bacillus subtilis ATCC 23857
[14] = test system: Staphylococcus aureus ATCC 9144
[15] = test system: Escherichia coli ATCC 25922
Micrococcus luteus = test system: Micrococcus luteus
[16] = test system: Candida tropicalis KCTC 7221
[17] = test system: Fusarium verticillioides KCTC 6149
[18] = test system: Candida parapsilosis CCARM 14016
[19] = test system: Fusarium oxysporum KCTC 16909
[20] = test system: Candida krusei CCARM 14017
[21] = test system: Candida albicans KCTC 7270
[22] = test system: Pseudomonas aeruginosa H547
[23] = test system: Pseudomonas aeruginosa H374
[24] = test system: Burkholderia cepacia ATCC 25416
[25] = test system: Pseudomonas aeruginosa H744
[26] = test system: Acinetobacter baumannii LMG 01041
[27] = test system: Escherichia coli LMG 15862
[28] = test system: Klebsiella aerogenes LMG 02094
[29] = test system: Klebsiella pneumoniae LMG 20218
[30] = test system: Pseudomonas aeruginosa LMG 6395
[31] = test system: Escherichia coli NEB5alpha
[32] = test system: Bacillus subtilis ATCC 6051

- MIC [1]: 24.4 µM (≈ 64 µg/mL)
- MIC (Escherichia coli DC2): 24.4 µM (≈ 64 µg/mL)
- MIC (Candida albicans C627): 24.4 µM (≈ 64 µg/mL)
- MIC [2]: 12.2 µM (≈ 32 µg/mL)
- MIC [3]: 24.4 µM (≈ 64 µg/mL)
- MIC [4]: 24.4 µM (≈ 64 µg/mL)
- MIC [5]: 24.4 µM (≈ 64 µg/mL)
- MIC [6]: 12.2 µM (≈ 32 µg/mL)
- MIC (Escherichia coli UB1005): 24.4 µM (≈ 64 µg/mL)
- MIC [7]: 24.4 µM (≈ 64 µg/mL)
- MIC [8]: 24.4 µM (≈ 64 µg/mL)
- MIC [9]: 12.2 µM (≈ 32 µg/mL)
SMILES: CC[C@H](C)[C@H](NC(=O)[C@H](C)NC(=O)CNC(=O)[C@H](CCCCN)NC(=O)[C@@H](NC(=O)[C@H](CC(C)C)NC(=O)[C@H](C)NC(=O)CNC(=O)[C@H](CC(C)C)NC(=O)[C@@H](N)Cc1ccccc1)[C@@H](C)CC)C(=O)N[C@@H](Cc1cnc[nH]1)C(=O)NCC(=O)NCC(=O)N[C@@H](CCCNC(=N)N)C(=O)N[C@@H](Cc1ccccc1)C(=O)N[C@H](C(=O)N[C@@H](Cc1cnc[nH]1)C(=O)NCC(=O)N[C@@H](CCSC)C(=O)N[C@H](C(=O)N[C@@H](CCC(N)=O)C(=O)N[C@@H](CC(N)=O)C(=O)N[C@@H](Cc1cnc[nH]1)C(=O)N[C@@H](Cc1cnc[nH]1)C(C)=O)[C@@H](C)CC)[C@@H](C)CC [FLGALIKGAIHGGRFIHGMIQNHH]

- MIC [10]: 49 µM (≈ 62.5 µg/mL)
- MIC [11]: 3.06 µM (≈ 3.9 µg/mL)
- MIC [12]: > 196 µM
- MIC (Aureobasidium pullulans): ≥ 49 µM
- MIC (Bacillus megaterium): 0.785 µM (≈ 0.999 µg/mL)
- MIC [13]: 3.06 µM (≈ 3.9 µg/mL)
- MIC [14]: ≥ 196 µM
- MIC [15]: 49 µM (≈ 62.5 µg/mL)
- MIC (Micrococcus luteus): ≥ 49 µM
SMILES: C[C@H](NC(=O)[C@H](CCCCN)NC(=O)[C@H](Cc1c[nH]c2ccccc12)NC(=O)[C@H](Cc1c[nH]c2ccccc12)NC(=O)CNC(=O)[C@H](Cc1c[nH]c2ccccc12)NC(=O)[C@H](CCCCN)NC(=O)[C@H](CCCCN)NC(=O)CN)C(=O)N[C@@H](CCCCN)C(N)=O [GKKWGWWKAK]

- MIC [16]: 8 µM and 16 µM
- MIC [17]: ≥ 64 µM
- MIC [18]: ≥ 64 µM
- MIC [19]: 6 µM and 16 µM
- MIC [20]: ≥ 48 µM and 16 µM
- MIC [21]: ≥ 64 µM
SMILES: CC[C@H](C)[C@H](NC(=O)[C@H](C)NC(=O)[C@H](CCC(=O)O)NC(=O)[C@H](Cc1cnc[nH]1)NC(=O)[C@H](CCCCN)NC(=O)CNC(=O)[C@H](CCC(N)=O)NC(=O)[C@H](CCCCN)NC(=O)[C@@H](NC(=O)[C@H](CCCCN)NC(=O)[C@H](CCCCN)NC(=O)[C@H](CC(C)C)NC(=O)[C@H](C)NC(=O)[C@H](CC(N)=O)NC(=O)[C@H](CC(C)C)NC(=O)CN)C(C)C)C(=O)N[C@@H](CCCCN)C(=O)N[C@@H](CC(C)C)C(=O)N[C@H](C(=O)N[C@@H](CC(N)=O)C(=O)N[C@@H](CC(N)=O)C(=O)N[C@@H](Cc1cnc[nH]1)C(=O)N[C@H](C(=O)N[C@@H](CCC(N)=O)C(N)=O)C(C)C)[C@@H](C)CC [GLNALKKVKQGKHEAIKLINNHVQ]

- MIC [2]: 1.06 µM (≈ 3 µg/mL)
- MIC [22]: 2.83 µM (≈ 8 µg/mL)
- MIC [4]: 1.77 µM (≈ 5 µg/mL)
- MIC [5]: 1.41 µM (≈ 4 µg/mL)
- MIC [23]: 1.41 µM (≈ 4 µg/mL)
- MIC (Escherichia coli UB1005): 0.707 µM (≈ 2 µg/mL)
- MIC [12]: 4 µM (≈ 11.3 µg/mL)
- MIC [24]: 22.6 µM (≈ 64 µg/mL)
- MIC [25]: 1.41 µM (≈ 4 µg/mL)
SMILES: CC[C@H](C)[C@H](NC(=O)[C@H](CC(C)C)NC(=O)[C@H](C)NC(=O)[C@@H]1CCCN1C(=O)[C@H](CC(C)C)NC(=O)CNC(=O)[C@@H](NC(=O)[C@@H](NC(=O)[C@H](CC(C)C)NC(=O)[C@@H](NC(=O)[C@H](CCCCN)NC(=O)[C@H](CCCCN)NC(=O)[C@H](C)NC(=O)[C@H](C)NC(=O)[C@H](CO)NC(=O)[C@@H](NC(=O)[C@H](CC(C)C)NC(=O)[C@H](CCCCN)NC(=O)[C@H](CCCCN)NC(=O)[C@@H](NC(=O)[C@H](Cc1ccccc1)NC(=O)[C@H](CO)NC(=O)[C@H](CCCCN)NC(=O)[C@H](Cc1c[nH]c2ccccc12)NC(=O)[C@@H](N)CCCCN)[C@@H](C)CC)[C@@H](C)O)C(C)C)[C@@H](C)O)[C@@H](C)O)C(=O)N[C@@H](CO)C(=O)O [KWKSFIKKLTSAAKKVLTTGLPALIS]

- MIC [26]: ≥ 128 µM
- MIC [27]: ≥ 32 µM
- MIC [28]: ≥ 256 µM
- MIC [29]: ≥ 64 µM
- MIC [30]: 16 µM (≈ 21.4 µg/mL)
SMILES: CC[C@H](C)[C@H](NC(=O)[C@H](CCCN=C(N)N)NC(=O)[C@H](CCC(N)=O)NC(=O)[C@@H](NC(=O)[C@@H](NC(=O)[C@@H](N)CCCN=C(N)N)[C@@H](C)CC)C(C)C)C(=O)N[C@@H](CCCCN)C(=O)N[C@@H](CCCCN)C(=O)N[C@@H](Cc1c[nH]c2ccccc12)C(=O)N[C@@H](CC(C)C)C(N)=O [RIVQRIKKWL]

- MIC [31]: ≥ 500 µM
- MIC [32]: ≥ 500 µM
SMILES: CC[C@H](C)[C@H](NC(=O)[C@H](C)NC(=O)CNC(=O)[C@H](CCCCN)NC(=O)[C@H](CCC(=O)O)NC(=O)[C@H](CCC(=O)O)NC(=O)[C@H](CC(=O)O)NC(=O)[C@H](CCC(=O)O)NC(=O)[C@H](CC(=O)O)NC(=O)[C@H](CCCN=C(N)N)NC(=O)CNC(=O)[C@H](CCC(N)=O)NC(=O)[C@H](CC(C)C)NC(=O)[C@H](CCCCN)NC(=O)[C@H](CC(=O)O)NC(=O)[C@@H](NC(=O)[C@@H](NC(=O)[C@H](Cc1cnc[nH]1)NC(=O)[C@H](CCCN=C(N)N)NC(=O)[C@H](CC(N)=O)NC(=O)[C@@H](N)C(C)C)[C@@H](C)CC)C(C)C)C(=O)N[C@H](C(=O)N[C@@H](CCCCN)C(=O)N[C@H](C(=O)N[C@@H](CCCCN)C(=O)NCC(=O)NCC(=O)N[C@@H](CC(C)C)C(=O)O)C(C)C)C(C)C [VNRHIVDKLQGRDEDEEKGAIVKVKGGL]
